Assay results: PubChem BioAssay AID743500 (The Scripps Research Institute Molecular Screening Center, 2014)
Activity calls are given as the source filed them. How the calls were made is not given here.

Test system: CCHFV L protein vOTU protease domain (Crimean-Congo hemorrhagic fever virus)
Test: CCHFV vOTU inhibition, late-stage follow-up, biochemical, fluorescence, Ub-AMC substrate, assay provider (AID 743500)
Conditions: Recombinant vOTU, Ub-AMC cleavage fluorescence, active compounds read high

**Q.** Which inhibition (at 11.51 µM) does the source give for `NS(=O)(=O)c1ccc(NC2=CC(=O)C(=O)c3ccccc32)cc1` here?
**A.** The inhibition was 71.8%.

**Q.** How did the inhibition (at 4.57 µM) turn out when `Nc1cc2c(cc1Br)[nH]c(=O)c1ccccc12` was run?
**A.** The inhibition was 12.7% (inactive).

**Q.** `Cn1nc(-c2ccccn2)nc2c(=O)n(C)c(=O)nc1-2` was tested. Which inhibition (at 1.16 µM) did it give?
**A.** Its inhibition is 94%.

**Q.** With `O=C(COC(=O)c1ccc([N+](=O)[O-])s1)Nc1ccc(F)cc1` as the compound, how does the inhibition (at 26.34 µM) read?
**A.** Its inhibition is 45.3%.

**Q.** `O=C(NC1=CC(=O)c2ccccc2C1=O)c1ccccc1` was tested. Which inhibition (at 12.37 µM) did it give?
**A.** Its inhibition is 48.8%.

**Q.** For `NS(=O)(=O)c1ccc(NC(=O)COC(=O)c2ccc([N+](=O)[O-])s2)cc1`, which inhibition (at 29.01 µM) is on record?
**A.** The inhibition was 42.6%.

**Q.** For `NC1=C(Cl)C(=O)c2ccc(S(N)(=O)=O)cc2C1=O`, which inhibition (at 0.39 µM) is on record?
**A.** Its inhibition is 63.1%.

**Q.** How did the inhibition (at 10.17 µM) turn out when `O=C(/C=C/c1ccc(O)cc1)c1ccc(NC2=C(N3CCCCC3)C(=O)c3ccccc3C2=O)cc1` was run?
**A.** Its inhibition is 41%.

**Q.** For `O=C(COC(=O)c1ccc([N+](=O)[O-])s1)Nc1ncc(C(F)(F)F)cc1Cl`, which inhibition (at 27.79 µM) is on record?
**A.** Its inhibition is 42.1%.

**Q.** Which inhibition (at 21.72 µM) does the source give for `COc1cc(NC(=O)COC(=O)c2ccc([N+](=O)[O-])s2)cc(OC)c1OC` here?
**A.** The inhibition was 44.2%.

**Q.** For `COc1ccccc1NC(=O)COC(=O)c1ccc([N+](=O)[O-])s1`, which inhibition (at 35.07 µM) is on record?
**A.** Its inhibition is 53.8%.

**Q.** How did the inhibition (at 20.44 µM) turn out when `Cc1c(Cl)cnc(NC(=O)COC(=O)c2ccc([N+](=O)[O-])s2)c1Cl` was run?
**A.** Its inhibition is 55.3%.

**Q.** For `O=C(OCc1nnc(-c2ccccc2)o1)c1ccc([N+](=O)[O-])s1`, which inhibition (at 26.04 µM) is on record?
**A.** The inhibition was 55.6%.

**Q.** Which inhibition (at 1.45 µM) does the source give for `O=c1[nH]c(Nc2ccccc2)cc2cc(Br)ccc12` here?
**A.** Its inhibition is 15.8% (inactive).

**Q.** `COC(CNC(=O)c1ccc2c3c(onc13)-c1ccccc1C2=O)OC` was tested. Which inhibition (at 24.19 µM) did it give?
**A.** Its inhibition is 51.7%.

**Q.** For `O=C1C=C(Nc2ccccc2)c2ccccc2C1=O`, which inhibition (at 15.55 µM) is on record?
**A.** The inhibition was 80.2%.

**Q.** Which inhibition (at 0.6 µM) does the source give for `O=C1Cc2ccccc2C(=O)N1` here?
**A.** Its inhibition is 57.1%.

**Q.** For `COc1ccc2noc3c2c1C(=O)c1ccccc1-3`, which inhibition (at 6.28 µM) is on record?
**A.** The inhibition was 12.4% (inactive).

**Q.** How did the inhibition (at 14.16 µM) turn out when `CCc1cc[n+](C2=C(NS(=O)(=O)c3cccs3)C(=O)c3ccccc3C2=O)cc1` was run?
**A.** Its inhibition is 18.8% (inactive).

**Q.** For `COc1cc(Br)c(C(=O)c2nccc3cc(OC)c(OC)cc23)cc1OC`, which inhibition (at 1.13 µM) is on record?
**A.** Its inhibition is 19.1% (inactive).

**Q.** `O=C(COC(=O)c1ccc([N+](=O)[O-])s1)NCc1ccc(F)cc1` was tested. Which inhibition (at 40.58 µM) did it give?
**A.** Its inhibition is 41%.

**Q.** For `O=C1Cc2ccccc2C(=O)N1Cc1ccccc1`, which inhibition (at 1.31 µM) is on record?
**A.** Its inhibition is 49.6%.

**Q.** With `COC1=C(N)C(=O)c2nc(C)ccc2C1=O` as the compound, how does the inhibition (at 4.98 µM) read?
**A.** Its inhibition is 71.9%.

**Q.** For `Cc1ccc(N2C(=O)[C@@H]3[C@H](C2=O)C2c4ccccc4C=CN2[C@@H]3C(=O)c2ccco2)cc1` (stereo partly drawn), which inhibition (at 5.2 µM) is on record?
**A.** The inhibition was 41.3%.

**Q.** How did the inhibition (at 7.75 µM) turn out when `CCOC(=O)N=Nc1c2ccccc2c2nc3no[nH]c3nc12` was run?
**A.** Its inhibition is 26.4%.

**Q.** How did the inhibition (at 12.24 µM) turn out when `Cc1ccc(NC2=CC(=O)C(=O)c3ccccc32)cc1` was run?
**A.** Its inhibition is 85.2%.

**Q.** How did the inhibition (at 23.49 µM) turn out when `CC1(C)C=C2C(=NN(c3ccccc3)C(N)=C2C#N)CO1` was run?
**A.** Its inhibition is 82.1%.

**Q.** `CC1COCC(C)N1C1=C(Cl)C(=O)c2ccccc2C1=O` (stereo not drawn) was tested. Which inhibition (at 14.67 µM) did it give?
**A.** The inhibition was 23.4%.

**Q.** With `Cc1ccc2c(c1C)-c1c(ccc(C)c1C)C(=O)C2=O` as the compound, how does the inhibition (at 18.9 µM) read?
**A.** Its inhibition is 66.2%.

**Q.** Which inhibition (at 31.32 µM) does the source give for `CC1CCCC(NC(=O)COC(=O)c2ccc([N+](=O)[O-])s2)C1C` (stereo not drawn) here?
**A.** The inhibition was 22.6%.

**Q.** How did the inhibition (at 14.2 µM) turn out when `O=C(NC1=C(NC2CCS(=O)(=O)C2)C(=O)c2ccccc2C1=O)c1ccccc1` (stereo not drawn) was run?
**A.** The inhibition was 49.8%.

**Q.** Which inhibition (at 11.01 µM) does the source give for `O=C(c1ccco1)[C@@H]1[C@@H]2C(=O)N(c3ccc(Br)cc3)C(=O)[C@@H]2C2c3ccccc3C=CN21` (stereo partly drawn) here?
**A.** Its inhibition is 79.7%.

**Q.** For `CCn1nc(/C=C/c2ccccc2)nc2c(=O)n(C)c(=O)nc1-2`, which inhibition (at 0.49 µM) is on record?
**A.** The inhibition was 99%.
